Measurements as given in patent publication US20130190407A1, “CALCIUM RECEPTOR-ACTIVE MOLECULES” (NPS Pharmaceuticals, Inc., priority 1991, published 2013).
pEC50: −log10 of the molar value. Where two headings read alike, the source gives them in different places.

Tests used:
Sprague-Dawley rats = assay: Serum/plasma Ca2+, PTH and calcitonin in rats in vivo; set-up: species or system rat; settings: for ED50: Rattus norvegicus, po, normal adult rats
Experimental: Compounds shown to activate the bovine parathyroid cell calcium receptor in vitro were tested for hypocalcemic activity in vivo. Male Sprague-Dawley rats (200 g) were maintained on a low calcium diet for one week prior to receiving test substance or vehicle as control. Blood was collected from the tail vein three hours after the intra-peritoneal administration of NPS 467. […] Serum total calcium, albumin and phosphate were measured by techniques well known in the art.
Rats (male, Sprague-Dawley, 250-300 g) were fed standard rat chow and fasted overnight prior to the experiment. NPS R-467 was suspended in corn oil, and administered as a single oral dose through a gavage needle. Three hours later a sample of blood was taken from the tail vein and assessed for ionized Ca^2+ levels.

[1] = molecular target: T1, parathyroid cell calcium receptor (Bos taurus, UniProt P35384); assay: Mobilization of intracellular Ca2+ ([Ca2+]i, fura-2) in bovine parathyroid cells; type: cell-based; set-up: Parathyroid glands were obtained from freshly slaughtered calves (12-15 weeks old); endogenous in cells; host or cells: dissociated primary bovine (calf) parathyroid cells; settings: EC50 for mobilization of intracellular Ca2+; bovine parathyroid cells
T1 sequence (P35384 20-1085): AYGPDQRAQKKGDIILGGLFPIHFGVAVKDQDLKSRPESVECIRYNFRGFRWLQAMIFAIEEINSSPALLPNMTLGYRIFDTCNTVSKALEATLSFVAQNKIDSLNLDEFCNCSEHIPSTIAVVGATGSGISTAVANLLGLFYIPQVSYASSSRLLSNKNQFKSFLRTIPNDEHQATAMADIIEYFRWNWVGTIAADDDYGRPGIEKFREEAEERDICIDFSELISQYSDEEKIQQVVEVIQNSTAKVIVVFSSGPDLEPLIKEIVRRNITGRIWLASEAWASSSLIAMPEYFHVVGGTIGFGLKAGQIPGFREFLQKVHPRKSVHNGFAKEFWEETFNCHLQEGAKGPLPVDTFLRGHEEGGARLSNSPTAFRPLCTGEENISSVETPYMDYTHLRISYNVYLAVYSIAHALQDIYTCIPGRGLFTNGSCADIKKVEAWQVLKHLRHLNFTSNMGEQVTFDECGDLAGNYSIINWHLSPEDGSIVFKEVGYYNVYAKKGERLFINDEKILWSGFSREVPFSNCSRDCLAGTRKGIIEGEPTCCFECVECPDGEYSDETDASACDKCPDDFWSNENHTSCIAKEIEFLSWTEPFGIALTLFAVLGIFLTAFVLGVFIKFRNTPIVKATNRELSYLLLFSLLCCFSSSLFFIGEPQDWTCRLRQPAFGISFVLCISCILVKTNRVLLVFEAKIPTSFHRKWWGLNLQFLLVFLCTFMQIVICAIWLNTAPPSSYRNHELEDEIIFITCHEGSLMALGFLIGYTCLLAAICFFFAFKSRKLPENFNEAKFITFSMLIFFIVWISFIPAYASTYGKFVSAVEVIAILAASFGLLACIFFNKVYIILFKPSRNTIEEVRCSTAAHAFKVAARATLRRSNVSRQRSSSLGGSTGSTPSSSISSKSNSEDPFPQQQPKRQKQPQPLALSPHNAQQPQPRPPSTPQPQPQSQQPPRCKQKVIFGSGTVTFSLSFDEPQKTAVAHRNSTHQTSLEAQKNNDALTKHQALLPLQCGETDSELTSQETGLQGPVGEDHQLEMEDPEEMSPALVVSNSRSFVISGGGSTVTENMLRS
Experimental: This section describes procedures used to obtain and treat parathyroid cells from calves and humans. […] Human parathyroid glands, were obtained from patients undergoing surgical removal of parathyroid tissue for primary or uremic hyperparathyroidism (uremic HPT), and were treated similarly to bovine tissue.
Glands were trimmed of excess fat and connective tissue and then minced with fine scissors into cubes approximately 2-3 mm on a side. Dissociated parathyroid cells were prepared by collagenase digestion and then purified by centrifugation in Percoll buffer. The resultant parathyroid cell preparation was essentially devoid of red blood cells, adipocytes, and capillary tissue as assessed by phase contrast microscopy and Sudan black B staining. Dissociated and purified parathyroid cells were present as small clusters containing 5 to 20 cells.
The cells were then pelleted, resuspended in the same buffer, but lacking the ester, and incubated a further 15 minutes at 37° C. The cells were subsequently washed twice with PCB containing 0.5 mM CaCl2 and 0.5% BSA and maintained at room temperature (about 20° C.) Immediately before use, the cells were diluted five-fold with prewarmed 0.5 mM CaCl2-PCB to obtain a final BSA concentration of 0.1%. The concentration of cells in the cuvette used for fluorescence recording was 1−2×10^6/ml.
The fluorescence of indicator-loaded cells was measured at 37° C. in a spectrofluorimeter (Biomedical Instrumentation Group, University of Pennsylvania, Philadelphia, Pa.) equipped with a thermostated cuvette holder and magnetic stirrer using excitation and emission wavelengths of 340 and 510 nm, respectively. […] Leakage of dye is dependent on temperature and most occurs within the first 2 minutes after warming the cells in the cuvette. Dye leakage increases only very slowly thereafter. To correct the calibration for dye leakage, cells were placed in the cuvette and stirred at 37° C. for 2-3 minutes. The cell suspension was then removed, the cells pelleted, and the supernatant returned to a clean cuvette. […] This estimate was subtracted from the apparent Fmin.

C-cell calcium receptor = molecular target: T2, C-cell calcium receptor (Rattus norvegicus, UniProt P48442); type: cell-based
T2 construct: cultured cell lines expressing the C-cell phenotype (e.g., rat medullary thyroid carcinoma cells; rMTC 6-23 cells); host or cells: rMTC 6-23 rat medullary thyroid carcinoma cells
T2 sequence (P48442 20-1079): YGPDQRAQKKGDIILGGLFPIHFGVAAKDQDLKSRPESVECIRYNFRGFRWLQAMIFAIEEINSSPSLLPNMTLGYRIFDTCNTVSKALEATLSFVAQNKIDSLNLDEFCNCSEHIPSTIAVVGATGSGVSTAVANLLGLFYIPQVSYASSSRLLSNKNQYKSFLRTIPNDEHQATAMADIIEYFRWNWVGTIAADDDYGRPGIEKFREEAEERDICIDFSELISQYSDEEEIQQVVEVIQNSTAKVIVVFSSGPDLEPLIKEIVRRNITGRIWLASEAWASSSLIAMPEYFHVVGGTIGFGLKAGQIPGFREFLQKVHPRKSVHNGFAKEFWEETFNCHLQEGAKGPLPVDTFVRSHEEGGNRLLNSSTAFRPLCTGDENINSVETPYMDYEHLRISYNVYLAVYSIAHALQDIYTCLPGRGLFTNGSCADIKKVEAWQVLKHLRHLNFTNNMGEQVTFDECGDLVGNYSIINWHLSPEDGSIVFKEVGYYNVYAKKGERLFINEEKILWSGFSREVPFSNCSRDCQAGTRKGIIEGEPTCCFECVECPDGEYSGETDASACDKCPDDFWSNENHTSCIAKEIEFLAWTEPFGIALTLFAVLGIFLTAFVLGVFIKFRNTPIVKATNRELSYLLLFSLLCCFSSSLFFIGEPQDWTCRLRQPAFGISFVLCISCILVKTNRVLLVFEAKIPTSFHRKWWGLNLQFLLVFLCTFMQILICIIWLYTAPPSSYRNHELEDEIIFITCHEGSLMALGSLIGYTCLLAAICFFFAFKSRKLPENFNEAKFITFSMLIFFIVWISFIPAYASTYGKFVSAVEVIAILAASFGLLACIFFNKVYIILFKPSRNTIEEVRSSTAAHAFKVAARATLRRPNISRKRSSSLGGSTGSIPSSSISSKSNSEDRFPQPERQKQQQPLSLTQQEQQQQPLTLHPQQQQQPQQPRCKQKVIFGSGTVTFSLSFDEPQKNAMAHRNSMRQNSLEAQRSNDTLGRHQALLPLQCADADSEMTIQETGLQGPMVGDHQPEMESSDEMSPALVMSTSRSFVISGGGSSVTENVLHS

Bovine parathyroid cells = type: cell-based; settings: 10 μM isoproterenol 15 min; no pertussis toxin; 2.0 mM Ca2+, 200 μM spermine, 30 μM neomycin B, 2 μg/ml protamine; mean ± SEM
Experimental: This section describes measuring cyclic AMP levels. Cells were incubated as above for PTH secretion studies and at the end of the incubation, a 0.15-ml sample was taken and transferred to 0.85 ml of hot (70° C.) water and heated at this temperature for 5-10 minutes. The tubes were subsequently frozen and thawed several times and the cellular debris sedimented by centrifugation. Portions of the supernatant were acetylated and cyclic AMP concentrations determined by radioimmunoassay.
Bovine parathyroid cells were cultured for 16 hours with or without 100 ng/ml pertussis toxin. […] Each value is the mean±SEM of three experiments.

Compound: COc1cccc([C@@H](C)NCCCc2ccccc2)c1 (single isomer, unassigned) [NPS R-467]
- potency in lowering serum Ca2+ in vivo (Sprague-Dawley rats; 5 mg/kg body weight): more potent than the S-isomer in lowering serum Ca^2+ in vivo
- serum ionized Ca2+ (Sprague-Dawley rats; single oral dose in corn oil, three hours): dose-dependent reduction in serum levels of ionized Ca^2+
- pEC50 [1]: > 5.30

Compound: COc1cccc([C@@H](C)NCCCc2ccccc2Cl)c1 [NPS R-568, (R)-(+)-N-[3-(2-chlorophenyl)propyl]-α-methyl-3-methoxybenzylamine]
- ED50 (Sprague-Dawley rats; read-out: ED50 for depression of plasma Ca2+): 8 mg/kg
- ED50 (Sprague-Dawley rats; read-out: ED50 for depression of plasma PTH): 1 mg/kg
- ED50 (Sprague-Dawley rats; read-out: ED50 for stimulation of calcitonin): 40 mg/kg
- pEC50 [1]: > 5.30

Compound: NC[C@@H]1O[C@H](O[C@H]2[C@@H](O)[C@H](O[C@@H]3[C@@H](O)[C@H](N)C[C@H](N)[C@H]3O[C@H]3O[C@H](CN)[C@@H](O)[C@H](O)[C@H]3N)O[C@@H]2CO)[C@H](N)[C@@H](O)[C@@H]1O [Neomycin B, neomycin B]
- effect on basal [Ca2+]i (C-cell calcium receptor): without effect
- EC50 C-CELL (C-cell calcium receptor; Table 6, rMTC 6-23 cells): inactive
- cyclic AMP (% of control), control (Bovine parathyroid cells): 28 ± 8 % of control
